# Biological target: T1, androgen receptor (AR) (Homo sapiens, UniProt P10275, T878A)
# T1 sequence (P10275 1-920 T878A): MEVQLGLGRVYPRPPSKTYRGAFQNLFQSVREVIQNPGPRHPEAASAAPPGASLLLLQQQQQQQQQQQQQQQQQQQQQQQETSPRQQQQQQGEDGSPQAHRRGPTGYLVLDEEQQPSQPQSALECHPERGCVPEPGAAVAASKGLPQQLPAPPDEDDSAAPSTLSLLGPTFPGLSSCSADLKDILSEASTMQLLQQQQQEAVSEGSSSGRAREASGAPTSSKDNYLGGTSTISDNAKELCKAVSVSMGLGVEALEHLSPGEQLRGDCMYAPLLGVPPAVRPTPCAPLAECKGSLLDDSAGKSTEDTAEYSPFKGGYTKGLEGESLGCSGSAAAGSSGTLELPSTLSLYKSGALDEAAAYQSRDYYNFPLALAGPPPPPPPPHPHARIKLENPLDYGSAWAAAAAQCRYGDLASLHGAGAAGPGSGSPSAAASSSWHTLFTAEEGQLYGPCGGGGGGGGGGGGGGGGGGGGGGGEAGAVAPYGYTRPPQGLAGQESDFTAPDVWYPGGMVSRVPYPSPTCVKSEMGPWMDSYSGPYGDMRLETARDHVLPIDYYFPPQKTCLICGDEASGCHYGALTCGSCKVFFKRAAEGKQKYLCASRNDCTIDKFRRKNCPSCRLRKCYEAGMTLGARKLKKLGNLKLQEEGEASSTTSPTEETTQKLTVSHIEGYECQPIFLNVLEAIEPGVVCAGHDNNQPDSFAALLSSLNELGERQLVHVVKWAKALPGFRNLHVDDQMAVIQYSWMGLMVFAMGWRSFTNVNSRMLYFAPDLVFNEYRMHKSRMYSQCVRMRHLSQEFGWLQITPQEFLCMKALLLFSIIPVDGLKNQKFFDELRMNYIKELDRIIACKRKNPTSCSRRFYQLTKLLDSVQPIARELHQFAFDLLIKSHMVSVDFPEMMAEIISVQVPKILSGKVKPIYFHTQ
# Assay type: cell-based
# Conditions: not given
Structure (SMILES),"fold less potent than enantiomer (1S,2R)-27",fold increase in activity relative to amide 5b [fold]
"Cc1ccc(Cl)cc1N1CCN(C(=O)[C@@H]2C[C@@H]2c2ccc(F)cc2)CC1 [(1R,2S)-27]",ca. 10 fold,–
Cc1ccccc1N1CCN(CCSCc2c(C)noc2C)CC1 [compound 6],–,1.3

# Same assay, conditions: C4-2-PSA-rl cells, 1 nM R1881
row,Structure (SMILES),"activity in the PSA luciferase assay, in words"
1,Cc1ccccc1N1CCN(C(=O)[C@H]2C[C@@H]2c2ccccc2)CC1 (relative stereo) [compound 16],essentially inactive
2,Cc1noc(C)c1CSCC(=O)N1CCN(c2ccccc2)CC1 [5a],deleted activity
3,Cc1cccc(N2CCN(C(=O)CSCc3c(C)noc3C)CC2)c1 [5c],loss of activity
4,Cc1ccc(N2CCN(C(=O)CSCc3c(C)noc3C)CC2)cc1 [5d],loss of activity
5,COc1ccccc1N1CCN(C(=O)CSCc2c(C)noc2C)CC1 [5h],complete loss of activity
6,Cc1ccccc1N1CCN(C(=O)COCc2c(C)noc2C)CC1 [18a],abolished activity
7,Cc1ccccc1N1CCN(C(=O)CN(C)Cc2ccccc2)CC1 [18b],abolished activity
8,Cc1ccccc1N1CCN(C(=O)NCSCc2c(C)noc2C)CC1 [20a],inactive
9,Cc1ccccc1N1CCC(OC(=O)NCSCc2c(C)noc2C)CC1 [20b],inactive
10,"Cc1ccc(Cl)cc1N1CCN(C(=O)[C@H]2C[C@H]2c2ccc(F)cc2)CC1 [(1S,2R)-27]","substantially equipotent to the commercial AR antagonist, enzalutamide"
11,Cc1ccccc1N1CCN(C(=O)CSc2ccccc2)CC1 [compound 9],abolished activity
12,Cc1ccccc1N1CCN(C(=O)C#Cc2ccccc2)CC1 [compound 10],essentially inactive
13,Cc1ccccc1N1CCN(C(=O)/C=C/c2ccccc2)CC1 [compound 11],essentially inactive
14,Cc1ccccc1N1CCN(C(=O)C[S+]([O-])Cc2c(C)noc2C)CC1 (stereo not shown) [compound 12],inactive

# From publication PMC4983742 (ACS Medicinal Chemistry Letters, 2016)
